EP1080724A1, “MTP ACTIVITY-LOWERING COMPOSITIONS” (Nippon Shinyaku Co., Ltd., priority 1998, dated 1999)
Structures can show the parent of a compound that is named as a salt.

Key:
MTP = MTP activity-lowering activity (MTP activity in liver homogenate of orally dosed rats, method of Wetterau); assay type: in vivo; settings: SD rats, control group 9.09±1.0
Procedure: SD rats weighing about 200 g in groups of 6 were given 20 mg or 60 mg of the hydrochloride of the amino acid of the invention in 10 ml of water in 3 divided doses daily for 2 weeks. Thereafter, the liver was excised and homogenized using a homogenizing buffer (50 mM Tris (pH 7.4), 50 mM potassium chloride, […], leupeptin (5 µg/ml) and 2 mM phenylmethylsulfonyl fluoride) and the homogenate was centrifuged to give a liver homogenate. This liver homogenate was adjusted to a protein concentration of about 2 mg/mL with the same homogenizing buffer and 1 part of deoxycholate solution (0.56%, pH 7.5) was added to 10 parts of the homogenate. The reaction was then carried out at 4°C for 30 minutes, whereby MTP was liberated from the microsomal fraction. The membrane fraction was then removed by centrifugation to give a supernatant. This supernatant was diluted with Tris buffer (a buffer solution containing 15 mM Tris (pH 7.4), 40 mM NaCl, 1 mM EDTA, 0.02% NaN3) and dialyzed against the same buffer at 4°C overnight. The dialysate thus obtained was analyzed for MTP activity by the method of J. R. Wetterau [Science, 258, 999 (1992)].

HepG2 cells [1] = test: TG antisecretory activity: secreted triglyceride from labeled lipid in medium; assay type: cell-based; settings: 10 µM, 24 hours of culture, control group 161.2± 2.2
Procedure: HepG2 cells were cultured in DME medium supplemented with 1% BSA and 0.5 mM oleic acid for 24 hours. Then, the medium was changed to 1% BSA-DME containing 10 µM of the amino acid of the invention and simultaneously 0.5 µci of [^14C] acetic acid was added. The cells and medium were recovered after 24 hours of culture. The recovered cells were homogenized by sonication, and after quantitation of protein, the amount of secreted triglyceride (TG) was determined from the amount of labeled lipid in the medium.

HepG2 cells [2] = test: Apo B antisecretory activity (2): apo B secretions, ELISA; assay type: cell-based; settings: 10 µM; for Apo B secretions (ng/mg protein) After 24 hr of culture: control group 2544±425; for Apo B secretions After 24 hr of culture (%) / Apo B secretions After 48 hr of culture (%): percent of control group (100); for Apo B secretions (ng/mg protein) After 48 hr of culture: control group 2080±110
Procedure: HepG2 cells were cultured in DME medium supplemented with 1% BSA and 0.5 mM oleic acid for 24 hours. Then, the medium was changed to 1% BSA-DME medium containing 10 µM of the amino acid of the invention and 0.5 µci of [^14C] acetic acid was simultaneously added. The cells and medium were recovered after 24 hours or 48 hours of culture. The recovered cells were homogenized by sonication, and after quantitation of protein, the amount of apo B secretions was determined by ELISA.

HepG2 cells [3] = test: Apo B antisecretory activity (1): apo B secreted into medium, ELISA; assay type: cell-based, human; settings: for Apo B secretions (µg/well): HepG2 cells, 24 hours culture, control group 9.92±0.80
Procedure: HepG2 cells (100×10^4 cells/dish) were sown on 3.5 cm dishes and precultured using 1 ml DME (containing 10% FCS) medium per dish. Following this preculture, the cells were washed with DME medium twice, added to the test medium, and cultured at 37°C under 95% air-5% carbon dioxide for 24 hours. The test medium was prepared by dissolving cycloalliin in dimethyl sulfoxide and diluted with DME medium containing 1% BSA and 0.5 mM oleic acid to a final cycloalliin concentration of 10^-6 M or 10^-4 M.
After 24 hours' culture, the medium was recovered and the amount of apo B secreted into the medium was determined by ELISA. Thus, anti-human apo B antibody (a 100-fold dilution) was distributed into a 96-well ELISA plate, 100 µL per well, and incubated at 37°C for 2 hours. Then, 100 µL/well of Block Ace was added and the plate was further incubated at 37°C for 2 hours. The wells were washed with PBS-Tween × 3 and 100 µL each of apo B standard solution and HepG2 culture were added, followed by further incubation at 4°C for 16 hours. After the wells were washed with PBS-Tween × 3, 100 µL/well of anti-human apo B marker antibody (a 200-fold dilution) was added and the plate was incubated at 37°C for 2 hours. The wells were washed with PBS-Tween × 3, then 100 µL/well of the substrate solution was added, and the plate was incubated at 25°C for 30 minutes. The reaction was stopped by adding 50 µL of 4.5 M H2SO4 and the absorbance at 482 nm was measured to estimate the amount of apo B secretion.

[4] = 60 mg in 10 ml of water in 3 divided doses daily for 2 weeks

Compound | MTP activity (%) (MTP; [4]) | TG secretions ([^14C]dpm × 10^-2/mg protein) (HepG2 cells [1]) | Apo B secretions (ng/mg protein) After 24 hr of culture (HepG2 cells [2]) [ng/mg protein] | Apo B secretions After 24 hr of culture (%) (HepG2 cells [2]) | Apo B secretions (ng/mg protein) After 48 hr of culture (HepG2 cells [2]) [ng/mg protein] | Apo B secretions After 48 hr of culture (%) (HepG2 cells [2]) | other results
CSC[C@H](N)C(=O)O [S-methyl-L-cysteine HCl, S-methyl-L-cysteine] | 5.68±0.6 |  |  |  |  |  | 
C[S+]([O-])CCC(N)C(=O)O (racemic) [DL-methionine sulfoxide] |  | 72.1± 8.5 [^14C]dpm × 10^-2/mg protein |  |  |  |  | 
S-methyl-L-cysteine sulfoxide [S-methyl-L-cysteine sulfoxide HCl] | 5.43±0.6 |  |  |  |  |  | 
CCCSC[C@H](N)C(=O)O [S-n-propyl-L-cysteine] |  | 99.0± 9.3 [^14C]dpm × 10^-2/mg protein | 2157± 86 | 84.8 | 555± 23 | 26.7 | 
C[C@H]1C[S@+]([O-])C[C@@H](C(=O)O)N1 [Cycloalliin, (1S,3R,5S)-5-methyl-1,4-thiazane-3-carboxylic acid 1-oxide] |  |  |  |  |  |  | Apo B secretions (µg/well) (HepG2 cells [3]; 10^-4 M): 7.67±1.31 µg/well; Apo B secretions (µg/well) (HepG2 cells [3]; 10^-6 M): 7.54±1.13 µg/well; apo B secretion (result in words) (HepG2 cells [3]; summary of Table 2): significant suppression
S-n-propyl-L-cysteine sulfoxide |  | 105.8±18.9 [^14C]dpm × 10^-2/mg protein |  |  |  |  | 
CSC[C@H](N)C(=O)O [S-methyl-L-cysteine] |  | 128.2±14.6 [^14C]dpm × 10^-2/mg protein | 2511±173 | 98.7 | 1906±122 | 91.6 | 
C[C@H]1C[S@+]([O-])C[C@@H](C(=O)O)N1 [Cycloalliin HCl, (1S,3R,5S)-5-methyl-1,4-thiazane-3-carboxylic acid 1-oxide] | 4.92±1.0 |  |  |  |  |  | MTP activity (%) (MTP; 20 mg in 10 ml of water in 3 divided doses daily for 2 weeks): 6.12±0.7 %
CCSC[C@H](N)C(=O)O [S-ethyl-L-cysteine] |  | 102.2± 7.1 [^14C]dpm × 10^-2/mg protein | 2390±615 | 93.9 | 994±111 | 47.8 | 
